In article PMC13355314, “Charged molecular glue discovery enabled by targeted degron display” (Nature Chemical Biology, 2026):
Values joined by “and” are separate entries in the source; they are usually repeats but may differ in a detail not shown here. Equal values may be shown once. “Also recorded” adds a separate entry of the source.

How the values were obtained:
BRD4 = target: T1, BRD4 (Homo sapiens, UniProt O60885); assay: HiBiT–BRD4 assay (endogenous BRD4 protein levels); format: cell-based
T1 construct: Endogenous BRD4 protein levels were evaluated using the Nano-Glo HiBiT lytic detection system; endogenous in cells; host or cells: Jurkat (HiBiT knock-in; some series in YPEL5-/- cells re-expressing WT or mutant YPEL5-FLAG)
Procedure: Introduction of a HiBiT coding sequence into the endogenous BRD4 locus in Jurkat cells was achieved using CRISPR–Cas9 genome editing. Alt-R CRISPR RNA (crRNA) and trans-activating crRNA (tracrRNA) (Integrated DNA Technologies) were resuspended in nuclease-free duplex buffer (Integrated DNA Technologies) at a concentration of 200 µM each. Equal volumes of crRNA and tracrRNA were mixed (final concentration of 100 µM each) and heated for 5 min at 95 °C. After heating, the complex was gradually cooled to room temperature. The oligo complex was then incubated at room temperature for 20 min with the Alt-R Cas9 nuclease V3 (Integrated DNA Technologies) to form the ribonucleoprotein (RNP) complex. The double-stranded DNA homology-directed repair (HDR) template (HiBiT–BRD4 with extensions, shown below), the RNP complex and an electroporation enhancer (Integrated DNA Technologies) were then electroporated into Jurkat cells using an Amaxa 4D-Nucleofector (Lonza). Electroporated cells were transferred to medium with HRD enhancer (Integrated DNA Technologies). Single cells were subsequently isolated by fluorescence-activated cell sorting and HiBiT expression from individual clones was detected with the Nano-Glo HiBiT lytic detection system (Promega). Sequences for the crRNA and HDR donor are provided below.
Endogenous BRD4 protein levels were evaluated using the Nano-Glo HiBiT lytic detection system (Promega). In brief, 1.5 × 10^4 HiBiT–BRD4 Jurkat cells were seeded into 384-well plates and incubated with the indicated concentrations of compounds. After 5 h, the plates were subjected to a Nano-Glo HiBiT lytic detection system as described in the manufacturer’s manual. The HiBiT–BRD4 assays were conducted in biological triplicates.

*BRD4BD1 / YPEL5-CTLH E3 = target: T2, *BRD4BD1 / YPEL5-CTLH E3 (Homo sapiens, UniProt O60885+P62699); assay: In vitro ubiquitylation assay (YPEL5-CTLH E3, UBE2H); format: biochemical; details: YPEL5-CTLH E3-dependent
T2 construct: fluorescent BRD4 bromodomain substrates, either in isolation (BRD4BD1 and BRD4BD2) or in tandem (BRD4BD1+BD2); GST (N, cleaved yes); made in house; host or cells: CTLH E3 and UBA1: High Five insect cells; BRD4BD1, UBE2H, ubiquitin: E. coli BL21 (DE3) RIL
Procedure: All ubiquitylation assays were performed at room temperature in the final reaction buffer containing 25 mM HEPES pH 7.5, 150 mM NaCl, 0.25 mM DTT, 5 mM ATP and 10 mM MgCl2. Samples at indicated time points were quenched by mixing an aliquot of the total reaction mixture with a reducing Laemmli buffer and subjected to SDS–PAGE. Substrate ubiquitylation was visualized by a fluorescence scan of SDS–PAGE gels using the Amersham Typhoon Imager 600 (GE Healthcare).
The mixture was incubated at room temperature for 1 h and supplemented with 0.2 μM E1 UBA1 and 20 μM ubiquitin to initiate the reaction.

[1] = system: ternary complex of *BRD4BD1, ZZ1-SO2H and YPEL5-WDR26; assay: Competitive FP disrupting the ternary complex; format: binding, human
Source text: The four-parameter [inhibitor] versus response model was applied to estimate the IC50.

GSH chemical stability = format: physicochemical; details: for half-life: GSH chemical stability; for remaining at 5 min / remaining at […] / remaining at 0.5 h / remaining at 1 h / remaining at 2 h: GSH; for remaining at […]: 15 min; for remaining at 0.5 h: 30 min; for remaining at 1 h: 60 min; for remaining at 2 h: 120 min
Source text: Afatinib Time Peak Area %Remaining Ln T1/2
(Ctrl) (min) Ratio (%remaining) (min)
(min) Ratio (%remaining) (min)

BRD2, BRD3, BRD4 = assay: Western blotting of BET protein degradation; format: cell-based, human; details: immunoblotting (and proteome-wide MS)
Procedure: Total cells lysates were prepared in 2× sample loading buffer (that is, 250 mM Tris-HCl pH 6.8, 4% SDS, 10% glycerol, 0.006% bromophenol blue, 2% β-mercaptoethanol, 50 mM sodium fluoride and 5 mM sodium orthovanadate). The samples with cell lysates were boiled for 5–8 min at 95 °C. The protein concentrations of the cell lysates were quantified using the BCA method and a BCA protein assay kit (Thermo Fisher Scientific). […] After washing the membranes with PBS for 30 min, the membranes were detected on a Li-COR Odyssey CLx system.

Plasma stability, human = format: in vitro ADME; details: read-out: Plasma Stability (T1/2 min)
BRD4BD1 = target: T3, BRD4BD1 (Homo sapiens, UniProt O60885); assay: cell-based; format: cell-based; details: K562, 16 h
T3 construct: host or cells: K562-Cas9
Procedure: Reporter cell lines were generated as described previously.
(§1) Then, 50 µl of cell suspension was seeded in 384-well plates and immediately treated with DMSO or drug for 16 h. The indicated drugs were dispensed with a D300 digital dispenser (Tecan Genomics). The fluorescence signal was quantified by flow cytometry (FACSymphony flow cytometer, BD Biosciences). Using FlowJo (flow cytometry analysis software, BD Biosciences), the geometric mean of the eGFP and mCherry fluorescent signal for round and mCherry-positive cells was calculated. The ratio of eGFP to mCherry was normalized to the average of ten DMSO-treated controls.

BRD3BD1 = target: T4, BRD3BD1 (Homo sapiens, UniProt Q15059); assay: Cellular fluorescent reporter assay, BRD3 BD1; format: cell-based
T4 construct: Cellular fluorescent reporter assay testing ZZ1-induced degradation of BRD2 and BRD3 BD1 bromodomains; expressed in transfected cells
T4 sequence (Q15059 34-140 limits assumed): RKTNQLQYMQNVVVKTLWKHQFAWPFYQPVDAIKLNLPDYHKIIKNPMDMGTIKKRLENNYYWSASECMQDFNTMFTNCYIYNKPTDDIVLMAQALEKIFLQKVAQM
Procedure: as §1

Microsome stability, HLM = format: in vitro ADME; details: human, liver microsomes; for half-life: read-out: HLM Stability (T1/2 min)
BRD4BD2 = target: T5, BRD4BD2 (Homo sapiens, UniProt O60885); assay: BRD4 reporter stability analysis, BRD4BD2–eGFP (K562-Cas9, flow cytometry); format: cell-based; details: for DC50: BRD4BD2 reporter, K562, 16 h; for Dmax: K562
T5 construct: host or cells: K562-Cas9
Procedure: (§2) The Cilantro 2 reporter vector (PGK.BsmBICloneSite-10aaFlexibleLinker-eGFP.IRES.mCherry. cppt.EF1α.PuroR; Addgene, 74450) was used for flow-based degradation assays. […] Reporter cell lines were generated as described previously.
as §1

Microsome stability, MLM = format: in vitro ADME; details: mouse, liver microsomes; for half-life: read-out: MLM Stability (T1/2 min)
[2] = system: FAM–BRD4BD1 + YPEL5–WDR26; assay: Real-time FP monitoring the rate of ternary complex formation; format: binding, human; details: in vitro, DTT-containing buffer
Procedure: Here, the concentration of DTT in the binding buffer used for preparing the tracer–E3 ligase mixture varied from 0.1 to 5 mM.

Plasma stability, mouse = format: in vitro ADME; details: read-out: Plasma Stability (T1/2 min)
BRD4BD1+BD2 = target: T6, BRD4BD1+BD2 (Homo sapiens, UniProt O60885); assay: BRD4 reporter stability analysis, BRD4BD1+BD2–eGFP (K562-Cas9, flow cytometry); format: cell-based; details: K562, 16 h
T6 construct: host or cells: K562-Cas9
Procedure: as §2, §1

BRD2BD1 = target: T7, BRD2BD1 (Homo sapiens, UniProt P25440); assay: Cellular fluorescent reporter assay, BRD2 BD1; format: cell-based
T7 construct: Cellular fluorescent reporter assay testing ZZ1-induced degradation of BRD2 and BRD3 BD1 bromodomains; expressed in transfected cells
T7 sequence (P25440 74-180 limits assumed): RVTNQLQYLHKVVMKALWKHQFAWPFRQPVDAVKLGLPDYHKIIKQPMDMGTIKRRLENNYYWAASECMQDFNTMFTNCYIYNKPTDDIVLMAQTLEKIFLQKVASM
Procedure: as §1

[3] = target: T8, FAM–BRD4BD1 + YPEL5–WDR26 module (Homo sapiens, UniProt O60885+P62699); assay: FP assay quantifying ternary complex formation; details: *BRD4BD1 binding to YPEL5–WDR26 upon degrader titration
T8 construct: fluorescent BRD4 bromodomain substrates, either in isolation (BRD4BD1 and BRD4BD2) or in tandem (BRD4BD1+BD2); GST (N, cleaved yes); made in house; host or cells: BRD4BD1: E. coli BL21 (DE3) RIL; YPEL5–WDR26ΔCTLH: Trichoplusia ni High Five insect cells
Source text: The potency of the degraders was expressed as the EC50 estimated by nonlinear regression using a four-parameter [agonist] versus response model.

YPEL5 = target: T9, YPEL5 (Homo sapiens, UniProt P62699); assay: Octet BLI, binary affinity of degrader for YPEL5 (no BRD4BD1); format: binding; details: absence of BRD4BD1
T9 construct: made in house; host or cells: Trichoplusia ni High Five insect cells
T9 sequence (P62699 2-121): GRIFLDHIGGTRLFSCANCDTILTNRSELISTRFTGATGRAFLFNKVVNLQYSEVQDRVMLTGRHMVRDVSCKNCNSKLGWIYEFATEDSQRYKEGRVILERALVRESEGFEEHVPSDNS
Procedure: To quantify interactions between the degrader-bound neosubstrates and the CTLH E3 neosubstrate receptor module, we determined the KD using Octet BLI.
For each measurement, one of the loaded sensors was dipped in the reference solution containing 0 or 5 μM degrader in the BLI binding buffer (in the absence of the analyte protein). The reference response values were subtracted from the responses elicited by all the neosubstrate-containing solutions before data analysis. All BLI experiments were carried out at 20 °C using the eight-channel Octet R8 system (Sartorius). Concentrated proteins and compounds were diluted in the BLI binding buffer composed of 25 mM HEPES pH 7.5, 150 mM NaCl, 1 mM DTT and 0.05% Tween-20.
The raw data were processed with Octet analysis software (Sartorius) by applying a global fitting with linked Rmax values (assuming a 1:1 binding model). […] KD was estimated by nonlinear regression using the one-site binding model.

Cc1sc2c(c1C)C(c1ccc(NC(=O)c3ccc(S(=O)(=O)O)c(Cl)c3)cc1)=N[C@@H](CC(=O)OC(C)(C)C)c1nnc(C)n1-2 [ZZ1-SO3H]
activity in cellular assays (BRD4): inactive | BRD4BD1 ubiquitylation in vitro (*BRD4BD1 / YPEL5-CTLH E3): promoted robust BRD4BD1 ubiquitylation

Cc1sc2c(c1C)C(c1ccc(Cl)cc1)=N[C@@H](CC(=O)OC(C)(C)C)c1nnc(C)n1-2 [JQ1, reference compound]
disruption of the ternary complex [1]: could disrupt the ternary complex

Cc1sc2c(c1C)C(c1ccc(NC(=O)c3ccc(S(=O)(=O)F)c(Cl)c3)cc1)=N[C@@H](CC(=O)OC(C)(C)C)c1nnc(C)n1-2 [ZZ1]
half-life (GSH chemical stability; buffer): < 5 min | remaining at 5 min (GSH chemical stability; buffer): 26.7% | remaining at […] (GSH chemical stability; buffer): 9.36% | remaining at 0.5 h (GSH chemical stability; buffer): 3.21% | remaining at 1 h (GSH chemical stability; buffer): 3.12% | remaining at 2 h (GSH chemical stability; buffer): 2.27% | BET protein degradation (BRD2, BRD3, BRD4): induced selective degradation of BET proteins (BRD3, BRD4 and, to a lesser extent, BRD2); also recorded: especially potent in the Ewing sarcoma TC-71 cell line | half-life (Plasma stability, human): 45 min | DC50 (BRD4BD1; BRD4BD1 reporter): 126 nM and 128 nM | Dmax (BRD4BD1; BRD4BD1 reporter): 88% | Dmax (BRD4BD1; K562, BRD4BD1 reporter): 69% | DC50 (BRD3BD1): 33.5 ± 5.4 nM | Dmax (BRD3BD1): 73% | microsomal CLint (Microsome stability, HLM): 195 µL/min/mg | half-life (Microsome stability, HLM): 7.1 min | DC50 (BRD4BD2): 532 ± 80.2 nM | Dmax (BRD4BD2): 40% | Dmax (BRD4; Jurkat): 82% | DC50 (BRD4; Jurkat cells pretreated with MG132 for 1 h, then ZZ1 5 h): > 20000 nM | DC50 (BRD4; Jurkat cells pretreated with MLN-4924 for 1 h, then ZZ1 5 h): 1400 ± 130 nM | DC50 (BRD4; Jurkat cells, 5 h): 502 nM and 489 nM | DC50 (BRD4; Jurkat, 5 h, cells pretreated with 100 μM GSH for 2 h): 152 ± 19 nM | DC50 (BRD4; Jurkat, 5 h, no GSH pre-treatment): 237 ± 20 nM | DC50 (BRD4; WT YPEL5-expressing Jurkat cells, 5 h): 168 ± 15 nM | DC50 (BRD4; YPEL5 L62A-expressing Jurkat cells, 5 h): 841 ± 137 nM | DC50 (BRD4; YPEL5 R41A-expressing Jurkat cells, 5 h): 719 ± 102 nM | DC50 (BRD4; YPEL5 T36A-expressing Jurkat cells, 5 h): 971 ± 176 nM | microsomal CLint (Microsome stability, MLM): 254 µL/min/mg | half-life (Microsome stability, MLM): 5.5 min | rate of ternary complex formation [2]: induced ternary complex formation slowly | half-life (Plasma stability, mouse): 57 min | DC50 (BRD4BD1+BD2): 75 ± 16.4 nM | Dmax (BRD4BD1+BD2): 80% | DC50 (BRD2BD1): 70.1 ± 3.6 nM | Dmax (BRD2BD1): 63%

Cc1sc2c(c1C)C(c1ccc(NC(=O)c3cc(Cl)c(S(=O)O)c(Cl)c3)cc1)=N[C@@H](CC(=O)OC(C)(C)C)c1nnc(C)n1-2 [ZZ2-SO2H, 4-((4-((S)-6-(2-(tert-butoxy)-2-oxoethyl)-2,3,9-trimethyl-6H-thieno[3,2-f][1,2,4]triazolo[4,3-a][1,4]diazepin-4-yl)phenyl)carbamoyl)-2,6-dichlorobenzenesulfinic acid]
EC50 [3]: < 74 nM | BRD4BD1 ubiquitylation in vitro (*BRD4BD1 / YPEL5-CTLH E3): promotes more robust BRD4BD1 ubiquitylation

Cc1sc2c(c1C)C(c1ccc(NC(=O)c3cc(Cl)c(S(=O)(=O)F)c(Cl)c3)cc1)=N[C@@H](CC(=O)OC(C)(C)C)c1nnc(C)n1-2 [ZZ2]
half-life (GSH chemical stability; buffer): < 5 min | remaining at 5 min (GSH chemical stability; buffer): 9.27% | remaining at […] (GSH chemical stability; buffer): 4.72% | remaining at 0.5 h (GSH chemical stability; buffer): 0% | remaining at 1 h (GSH chemical stability; buffer): 0% | remaining at 2 h (GSH chemical stability; buffer): 0% | half-life (Plasma stability, human): 14 min | DC50 (BRD4BD1; BRD4BD1 reporter): 91 ± 8.8 nM | Dmax (BRD4BD1; K562, BRD4BD1 reporter): 81% | DC50 (BRD3BD1): 21.1 ± 3.1 nM | Dmax (BRD3BD1): 82% | microsomal CLint (Microsome stability, HLM): 670 µL/min/mg | half-life (Microsome stability, HLM): 2.1 min | DC50 (BRD4BD2): 198 ± 75.5 nM | Dmax (BRD4BD2): 31% | DC50 (BRD4; Jurkat cells, 5 h): 169 nM | microsomal CLint (Microsome stability, MLM): 741 µL/min/mg | half-life (Microsome stability, MLM): 1.9 min | rate of ternary complex formation [2]: much faster rate | half-life (Plasma stability, mouse): 7 min | DC50 (BRD2BD1): 46.4 ± 6.6 nM | Dmax (BRD2BD1): 76%

CN(C)C/C=C/C(=O)Nc1cc2c(Nc3ccc(F)c(Cl)c3)ncnc2cc1O[C@H]1CCOC1 [Afatinib, reference compound]
half-life (GSH chemical stability; glutathione (GSH) solution): 25.2 min | remaining at 5 min (GSH chemical stability; glutathione (GSH) solution): 82.1% | remaining at […] (GSH chemical stability; glutathione (GSH) solution): 48.1% | remaining at 0.5 h (GSH chemical stability; glutathione (GSH) solution): 27.6% | remaining at 1 h (GSH chemical stability; glutathione (GSH) solution): 13.8% | remaining at 2 h (GSH chemical stability; glutathione (GSH) solution): 3.43%

Cc1sc2c(c1C)C(c1ccc(NC(=O)c3ccc(S(=O)O)c(Cl)c3)cc1)=N[C@@H](CC(=O)OC(C)(C)C)c1nnc(C)n1-2 [ZZ1-SO2H]
affinity between degrader and YPEL5 by BLI (YPEL5): did not observe measurable affinity | activity in cellular assays (BRD4): inactive | EC50 [3]: 60 nM and ~60 nM and 74 nM | BRD4BD1 ubiquitylation in vitro (*BRD4BD1 / YPEL5-CTLH E3): promoted robust BRD4BD1 ubiquitylation

CCN(CC)CCNC(=O)c1c(C)[nH]c(/C=C2\C(=O)Nc3ccc(F)cc32)c1C [Sunitinib, reference compound]
microsomal CLint (Microsome stability, HLM): 32 µL/min/mg | half-life (Microsome stability, HLM): 43.5 min | microsomal CLint (Microsome stability, MLM): 38 µL/min/mg | half-life (Microsome stability, MLM): 36.5 min
